The target of one experiment is T1, E. feacalis DltA (Enterococcus faecalis, UniProt Q830N0).
T1 sequence (Q830N0 1-506): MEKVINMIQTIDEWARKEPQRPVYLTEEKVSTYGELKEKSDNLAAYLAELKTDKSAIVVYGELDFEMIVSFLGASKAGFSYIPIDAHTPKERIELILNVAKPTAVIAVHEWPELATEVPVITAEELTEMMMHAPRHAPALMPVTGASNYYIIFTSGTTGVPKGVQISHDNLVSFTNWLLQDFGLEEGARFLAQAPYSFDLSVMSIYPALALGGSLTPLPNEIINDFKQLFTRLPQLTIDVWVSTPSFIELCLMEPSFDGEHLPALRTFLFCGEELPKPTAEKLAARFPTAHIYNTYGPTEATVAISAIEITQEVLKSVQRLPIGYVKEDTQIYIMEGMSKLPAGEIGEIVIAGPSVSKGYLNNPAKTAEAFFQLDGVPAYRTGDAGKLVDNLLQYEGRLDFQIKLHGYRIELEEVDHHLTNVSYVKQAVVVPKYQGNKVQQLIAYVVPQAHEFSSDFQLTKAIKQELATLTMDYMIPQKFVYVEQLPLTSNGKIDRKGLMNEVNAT
The experiment can be described thus: biochemical.

The target in another experiment is T2, S. Agalactiae DltA (Streptococcus agalactiae serotype III, UniProt Q8VM67).
T2 sequence (Q8VM67 1-511): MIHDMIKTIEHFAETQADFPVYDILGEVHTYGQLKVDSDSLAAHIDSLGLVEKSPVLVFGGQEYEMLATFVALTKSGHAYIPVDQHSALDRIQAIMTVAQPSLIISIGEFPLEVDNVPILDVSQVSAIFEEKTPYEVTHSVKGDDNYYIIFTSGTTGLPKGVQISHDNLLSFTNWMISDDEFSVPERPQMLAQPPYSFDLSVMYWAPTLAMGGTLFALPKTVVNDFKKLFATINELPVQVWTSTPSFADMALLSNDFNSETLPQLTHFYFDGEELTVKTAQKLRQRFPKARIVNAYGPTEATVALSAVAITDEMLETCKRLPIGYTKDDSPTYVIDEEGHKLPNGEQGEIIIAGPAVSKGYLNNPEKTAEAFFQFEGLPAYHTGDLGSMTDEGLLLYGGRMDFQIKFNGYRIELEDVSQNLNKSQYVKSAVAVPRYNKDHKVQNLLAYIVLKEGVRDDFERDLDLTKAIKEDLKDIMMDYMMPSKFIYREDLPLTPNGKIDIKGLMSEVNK
Put plainly: biochemical.

Another experiment has as its target T3, E. feacium DltA (Enterococcus faecium, UniProt Q3XZT7).
T3 sequence (Q3XZT7 1-504): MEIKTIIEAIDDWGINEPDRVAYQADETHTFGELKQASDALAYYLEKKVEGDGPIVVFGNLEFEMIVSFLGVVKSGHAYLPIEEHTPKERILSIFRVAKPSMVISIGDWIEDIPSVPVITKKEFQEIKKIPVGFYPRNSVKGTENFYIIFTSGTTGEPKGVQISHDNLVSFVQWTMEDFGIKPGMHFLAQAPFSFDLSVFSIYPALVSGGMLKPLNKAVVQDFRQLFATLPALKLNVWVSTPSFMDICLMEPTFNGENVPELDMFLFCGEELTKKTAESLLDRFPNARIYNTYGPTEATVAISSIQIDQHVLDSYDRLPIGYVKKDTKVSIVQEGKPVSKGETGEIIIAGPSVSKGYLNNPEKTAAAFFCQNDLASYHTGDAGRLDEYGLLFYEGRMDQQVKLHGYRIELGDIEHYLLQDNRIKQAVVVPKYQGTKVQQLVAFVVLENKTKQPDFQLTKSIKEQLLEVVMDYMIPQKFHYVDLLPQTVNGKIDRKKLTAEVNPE
Put plainly: in vitro DltA activity assay (luminescence, IC50 determination). In kind it is biochemical. To be noted: recombinant DltA, 30min preincubation at room temperature, 0.5mM D-Alanine, 0.5-5µM ATP; read-out: E. feacium DltA IC50.

In a further experiment the target is T4, S. aureus DltA (Staphylococcus aureus, UniProt Q2FZW6).
T4 construct: made in house; host or cells: E. coli BL21
T4 sequence (Q2FZW6 1-485): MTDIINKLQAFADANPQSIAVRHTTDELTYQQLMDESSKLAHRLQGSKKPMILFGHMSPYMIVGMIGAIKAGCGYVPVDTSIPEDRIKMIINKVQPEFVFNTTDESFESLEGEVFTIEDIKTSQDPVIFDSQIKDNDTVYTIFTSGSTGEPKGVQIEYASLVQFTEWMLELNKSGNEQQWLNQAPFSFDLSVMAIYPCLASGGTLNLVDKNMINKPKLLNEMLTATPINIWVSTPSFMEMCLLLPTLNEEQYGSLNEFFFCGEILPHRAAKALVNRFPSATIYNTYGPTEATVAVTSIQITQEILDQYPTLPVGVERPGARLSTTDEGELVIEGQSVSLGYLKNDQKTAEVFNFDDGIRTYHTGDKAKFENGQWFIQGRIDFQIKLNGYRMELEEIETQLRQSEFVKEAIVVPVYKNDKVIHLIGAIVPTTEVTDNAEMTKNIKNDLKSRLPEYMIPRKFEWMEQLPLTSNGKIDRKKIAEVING
Described as above. In kind it is biochemical.

Structures can show the parent of a compound that is named as a salt.

As to `O=c1[nH]cnc2c(-c3ccc4c(c3)ncn4C3CCCCC3)sc(N3CCNCC3)c12` [Example 28, 7-(1-cyclohexyl-1H-benzoimidazol-5-yl)-5-piperazin-1-yl-3H-thieno[3,4-d]pyrimidin-4-one hydrochloride], the IC50 on E. feacalis DltA is 0.048 µM; at S. Agalactiae DltA it was 1.2 µM; at E. feacium DltA, 0.16 µM; against S. aureus DltA, 0.15 µM.

With `O=c1[nH]cnc2c1c(C1CCC(CO)C1)cn2-c1ccc2c(c1)ncn2C1CCCCC1` (centres unmarked) [Example 58, 7-(1-Cyclohexyl-1H-benzoimidazol-5-yl)-5-(3-hydroxymethyl-cyclopentyl)-3,7-dihydro-pyrrolo[2,3-d]pyrimidin-4-one], the IC50 against E. feacalis DltA turned out to be 0.19 µM; at S. Agalactiae DltA it was 6.1 µM; at E. feacium DltA, 0.48 µM; against S. aureus DltA it was 0.81 µM.

The values are drawn from patent EP2913333A1 (priority 2014, dated 2015).
